Test results: ChEMBL document CHEMBL1201862, “PubChem BioAssay data set” (2004)
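Cells were grown in 96-well plates and exposed to each compound for 48 hours at five concentrations; endpoints were interpolated linearly between bracketing concentrations, or set to the highest concentration if not reached. GI50 is the concentration that inhibits growth by half.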 Activity calls are given as the source filed them. No stated cut-off is given here; in the data, active = GI50 up to about 1.1 µM and inactive = higher.

Key:
Test in all cases: DTP human tumour cell line panel, 48 h
[1] = test system: 786-0
[2] = test system: A498
[3] = test system: A549
[4] = test system: ACHN
[5] = test system: CAKI-1
[6] = test system: CCRF-CEM
[7] = test system: COLO 205
[8] = test system: DLD-1
[9] = test system: DMS-114
[10] = test system: DMS-273
[11] = test system: EKVX
[12] = test system: HCC 2998
[13] = test system: HCT-116
[14] = test system: HCT-15
[15] = test system: HOP-18
[16] = test system: HOP-62
[17] = test system: HOP-92
[18] = test system: HT-29
[19] = test system: IGROV-1
[20] = test system: K562
[21] = test system: KM-20L2
[22] = test system: KM12
[23] = test system: LOX IMVI
[24] = test system: LXFL 529
[25] = test system: M14
[26] = test system: M19-MEL
[27] = test system: Malme-3M
[28] = test system: NCI-H226
[29] = test system: NCI-H23
[30] = test system: NCI-H460
[31] = test system: NCI-H522
[32] = test system: OVCAR-3
[33] = test system: OVCAR-4
[34] = test system: OVCAR-5
[35] = test system: OVCAR-8
[36] = test system: RPMI-8226
[37] = test system: RXF 393
[38] = test system: RXF 631
[39] = test system: SF-268
[40] = test system: SF-539
[41] = test system: SK-MEL-28
[42] = test system: SK-MEL-2
[43] = test system: SK-MEL-5
[44] = test system: SK-OV-3
[45] = test system: SN12C
[46] = test system: SNB-19
[47] = test system: SNB-75
[48] = test system: SNB-78
[49] = test system: SW-620
[50] = test system: TK-10
[51] = test system: U-251
[52] = test system: UACC-257
[53] = test system: UACC-62
[54] = test system: UO-31
[55] = test system: HL-60
[56] = test system: MOLT-4
[57] = test system: XF498
[58] = test system: SF-295

Cc1cc(Cl)ccc1NC(=O)C(=O)C(C(=O)c1ccc2ccccc2c1)C1OC(=O)c2ccccc21 (stereo unspecified)
GI50 [1]: 8.91 µM (inactive)
GI50 [2]: 7.48 µM (inactive)
GI50 [3]: 21.3 µM (inactive)
GI50 [4]: 23.2 µM (inactive)
GI50 [5]: 11.6 µM (inactive)
GI50 [6]: 1.11 µM (active)
GI50 [7]: 13.2 µM (inactive)
GI50 [8]: 14.3 µM (inactive)
GI50 [9]: 6.15 µM (inactive)
GI50 [10]: 12.4 µM (inactive)
GI50 [11]: 29.2 µM (inactive)
GI50 [12]: 10.2 µM (inactive)
GI50 [13]: 9.4 µM (inactive)
GI50 [14]: 18.7 µM
GI50 [15]: 0.544 µM (active)
GI50 [16]: 10.5 µM (inactive)
GI50 [17]: 14.3 µM (inactive)
GI50 [18]: 28.4 µM (inactive)
GI50 [19]: 20.8 µM (inactive)
GI50 [20]: 8.61 µM (inactive)
GI50 [21]: 24 µM (inactive)
GI50 [22]: 17 µM (inactive)
GI50 [23]: 13.2 µM (inactive)
GI50 [24]: 6.47 µM (inactive)
GI50 [25]: 16 µM (inactive)
GI50 [26]: 10.1 µM (inactive)
GI50 [27]: 10 µM (inactive)
GI50 [28]: 2.3 µM (inactive)
GI50 [29]: 6.73 µM (inactive)
GI50 [30]: 6.93 µM (inactive)
GI50 [31]: 7.06 µM (inactive)
GI50 [32]: 9.98 µM (inactive)
GI50 [33]: 7.6 µM (inactive)
GI50 [34]: 18.6 µM (inactive)
GI50 [35]: 14.1 µM (inactive)
GI50 [36]: 3.1 µM (inactive)
GI50 [37]: 1.83 µM (inactive)
GI50 [38]: 7.89 µM (inactive)
GI50 [39]: 4.08 µM (inactive)
GI50 [40]: 4.48 µM (inactive)
GI50 [41]: 9.79 µM (inactive)
GI50 [42]: 12.8 µM (inactive)
GI50 [43]: 12.7 µM (inactive)
GI50 [44]: 15.7 µM (inactive)
GI50 [45]: 15.7 µM (inactive)
GI50 [46]: 3.87 µM (inactive)
GI50 [47]: 10.1 µM (inactive)
GI50 [48]: 10.3 µM (inactive)
GI50 [49]: 7.87 µM (inactive)
GI50 [50]: > 10 µM (inactive)
GI50 [51]: 4.95 µM (inactive)
GI50 [52]: 16.1 µM (inactive)
GI50 [53]: 8.67 µM (inactive)
GI50 [54]: 12.9 µM (inactive)

CC(=O)CC(=O)Nc1ccccc1C(F)(F)F
GI50 [1]: > 100 µM (inactive)
GI50 [2]: > 100 µM (inactive)
GI50 [3]: > 100 µM (inactive)
GI50 [4]: > 100 µM (inactive)
GI50 [5]: > 100 µM (inactive)
GI50 [6]: > 100 µM (inactive)
GI50 [7]: > 100 µM (inactive)
GI50 [8]: > 100 µM (inactive)
GI50 [9]: > 100 µM (inactive)
GI50 [11]: > 100 µM (inactive)
GI50 [12]: > 100 µM (inactive)
GI50 [13]: > 100 µM (inactive)
GI50 [14]: > 100 µM
GI50 [55]: > 100 µM (inactive)
GI50 [16]: > 100 µM (inactive)
GI50 [17]: > 100 µM (inactive)
GI50 [19]: > 100 µM (inactive)
GI50 [20]: > 100 µM (inactive)
GI50 [21]: > 100 µM (inactive)
GI50 [23]: > 100 µM (inactive)
GI50 [24]: > 100 µM (inactive)
GI50 [25]: > 100 µM (inactive)
GI50 [26]: > 100 µM (inactive)
GI50 [56]: > 100 µM (inactive)
GI50 [27]: > 100 µM (inactive)
GI50 [28]: > 100 µM (inactive)
GI50 [29]: > 100 µM (inactive)
GI50 [30]: > 100 µM (inactive)
GI50 [31]: > 100 µM (inactive)
GI50 [33]: > 100 µM (inactive)
GI50 [34]: > 100 µM (inactive)
GI50 [35]: > 100 µM (inactive)
GI50 [36]: > 100 µM (inactive)
GI50 [37]: > 100 µM (inactive)
GI50 [38]: > 100 µM (inactive)
GI50 [39]: > 100 µM (inactive)
GI50 [40]: > 100 µM (inactive)
GI50 [41]: > 100 µM (inactive)
GI50 [42]: > 100 µM (inactive)
GI50 [43]: > 100 µM (inactive)
GI50 [44]: > 100 µM (inactive)
GI50 [45]: > 100 µM (inactive)
GI50 [46]: > 100 µM (inactive)
GI50 [47]: > 100 µM (inactive)
GI50 [48]: > 100 µM (inactive)
GI50 [49]: > 100 µM (inactive)
GI50 [50]: > 100 µM (inactive)
GI50 [51]: > 100 µM (inactive)
GI50 [53]: > 100 µM (inactive)
GI50 [54]: > 100 µM (inactive)
GI50 [57]: > 100 µM (inactive)

CCOC(=O)C(C(C)=O)C1CC=CC1 (stereo unspecified)
GI50 [1]: > 100 µM (inactive)
GI50 [3]: > 100 µM (inactive)
GI50 [4]: > 100 µM (inactive)
GI50 [5]: > 100 µM (inactive)
GI50 [6]: > 100 µM (inactive)
GI50 [7]: > 100 µM (inactive)
GI50 [8]: > 100 µM (inactive)
GI50 [9]: > 100 µM (inactive)
GI50 [10]: > 100 µM (inactive)
GI50 [11]: > 100 µM (inactive)
GI50 [12]: > 100 µM (inactive)
GI50 [13]: > 100 µM (inactive)
GI50 [14]: > 100 µM
GI50 [55]: > 100 µM (inactive)
GI50 [16]: > 100 µM (inactive)
GI50 [17]: > 100 µM (inactive)
GI50 [18]: > 100 µM (inactive)
GI50 [19]: > 100 µM (inactive)
GI50 [20]: > 100 µM (inactive)
GI50 [21]: > 100 µM (inactive)
GI50 [22]: > 100 µM (inactive)
GI50 [23]: > 100 µM (inactive)
GI50 [24]: > 100 µM (inactive)
GI50 [25]: > 100 µM (inactive)
GI50 [56]: > 100 µM (inactive)
GI50 [27]: > 100 µM (inactive)
GI50 [28]: > 100 µM (inactive)
GI50 [30]: > 100 µM (inactive)
GI50 [32]: > 100 µM (inactive)
GI50 [33]: > 100 µM (inactive)
GI50 [34]: > 100 µM (inactive)
GI50 [35]: > 100 µM (inactive)
GI50 [36]: > 100 µM (inactive)
GI50 [37]: > 100 µM (inactive)
GI50 [38]: > 100 µM (inactive)
GI50 [58]: > 100 µM (inactive)
GI50 [41]: > 100 µM (inactive)
GI50 [42]: > 100 µM (inactive)
GI50 [43]: > 100 µM (inactive)
GI50 [44]: > 100 µM (inactive)
GI50 [45]: > 100 µM (inactive)
GI50 [46]: > 100 µM (inactive)
GI50 [47]: > 100 µM (inactive)
GI50 [48]: > 100 µM (inactive)
GI50 [49]: > 100 µM (inactive)
GI50 [50]: > 100 µM (inactive)
GI50 [51]: > 100 µM (inactive)
GI50 [52]: > 100 µM (inactive)
GI50 [53]: > 100 µM (inactive)
GI50 [54]: > 100 µM (inactive)
GI50 [57]: > 100 µM (inactive)
